Laboratory results published in ChEMBL document CHEMBL1134353, “X-Ray structure of citrate bound to Src SH2 leads to a high-affinity, bone-targeted Src SH2 inhibitor” (J Med Chem, 2001).

Columns and labels:
[1] = target: Proto-oncogene tyrosine-protein kinase Src (Homo sapiens, UniProt P12931); assay: Inhibition of binding to Src SH2 domain
[2] = species on record: Oryctolagus cuniculus; assay: Ability to inhibit osteoclast mediated resorption of dentine in rabbit; type: functional

Chain of Proto-oncogene tyrosine-protein kinase Src (P12931 2-536 limits assumed): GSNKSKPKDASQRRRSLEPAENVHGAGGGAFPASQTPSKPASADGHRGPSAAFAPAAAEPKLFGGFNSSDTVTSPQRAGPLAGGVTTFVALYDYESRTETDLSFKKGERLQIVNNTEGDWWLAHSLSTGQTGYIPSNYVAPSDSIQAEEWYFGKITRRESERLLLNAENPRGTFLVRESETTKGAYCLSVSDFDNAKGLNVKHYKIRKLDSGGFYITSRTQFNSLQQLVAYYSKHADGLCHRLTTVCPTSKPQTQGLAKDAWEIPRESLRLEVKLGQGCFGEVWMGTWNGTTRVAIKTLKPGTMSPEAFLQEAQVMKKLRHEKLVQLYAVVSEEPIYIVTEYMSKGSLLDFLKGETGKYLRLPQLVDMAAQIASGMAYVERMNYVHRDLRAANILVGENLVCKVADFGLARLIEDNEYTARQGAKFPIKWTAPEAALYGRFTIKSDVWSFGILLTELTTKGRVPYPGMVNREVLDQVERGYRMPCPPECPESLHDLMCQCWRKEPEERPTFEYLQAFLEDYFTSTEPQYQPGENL

Compound	IC50 [1] [nM]	IC50 [2] [nM]
CC(=O)N[C@@H](Cc1ccc(CP(=O)(O)O)cc1)C(=O)N[C@@H](C)c1ccc(OCC2CCCCC2)c(C(N)=O)c1	7900	
CC(=O)N[C@@H](Cc1ccc(C(P(=O)(O)O)P(=O)(O)O)cc1)C(=O)N[C@@H](C)c1ccc(OCC2CCCCC2)c(C(N)=O)c1	350	2000
